Measurements from PMC9003574 (ACS Pharmacology & Translational Science, 2022).
Read-outs that look alike come from different tables or passages of the source.

Legend:
[1] = tested on: Vero E6-GFP cells; test: in vitro; format: cell-based, African green monkey; conditions: read-out: Vero E6-GFP CC50; cell viability, 2 μM CP100356
[2] = target: T1, SARS-CoV-2 nsp13 (Severe acute respiratory syndrome coronavirus 2, UniProt P0DTD1); test: biochemical
[3] = target: T1, SARS-CoV-2 nsp13; test: biochemical; format: biochemical; conditions: for ATPase, percentage of control at the highest tested compound concentration: without BSA/TCEP
[4] = target: T1, SARS-CoV-2 nsp13; conditions: for impact of DTT on inhibition of unwinding activity: presence or absence of 1 mM DTT
[5] = in vitro; format: cell-based, African green monkey; conditions: African green monkey, with CP100356, 2 μM
[6] = tested on: SARS-CoV-2; test: microbe, parasite or virus in culture; format: cell-based; conditions: for EC50: Severe acute respiratory syndrome coronavirus 2, Vero, read-out: SARS-CoV-2 EC50
[7] = target: T1, SARS-CoV-2 nsp13; conditions: read-out: NTPase activity IC50; cited from earlier work
[8] = unwinding IC50, without BSA/TCEP
[9] = ATPase IC50, without BSA/TCEP, no nucleic acid
[10] = unwinding BSA-TCEP IC50, 10 μg/mL BSA and 180 μM TCEP
[11] = ATPase BSA-TCEP-polyrA IC50, BSA, TCEP and poly(A) ssRNA

Compound	IC50 [2, 8]	IC50 [3, 9]	ATPase, percentage of control at the highest tested compound concentration [3]	unwinding, percentage of control at the highest tested compound concentration ([4]; without BSA/TCEP)	CC50 at 72 h [5]	viability at 72 h [5]	EC50 [6]	SARS-CoV-2, percentage of control at the highest tested compound concentration [6]	also measured
CC(C)C[C@H](NC(=O)OCc1ccccc1)C(=O)N[C@@H](CC1CCNC1=O)C(O)S(=O)(=O)O (stereo partly shown) [GC376, reference compound]									CC50 [1]: > 100 µM
O=c1cc(-c2ccc(O)cc2)oc2cc(O[C@@H]3O[C@H](CO)[C@@H](O)[C@H](O)[C@H]3O)cc(O)c12 [apigenin-7-O-glucoside]	> 30 µM	> 30 µM	99%	100%					
O=c1cc(-c2ccccc2)oc2cc(O)c(O)c(O)c12 [baicalein]			94%		> 100 µM	100%	> 100 µM	>100 (100%)	
COc1ccc2cc1Oc1ccc(cc1)C[C@H]1c3c(cc4c(c3Oc3cc5c(cc3OC)CCN(C)[C@@H]5C2)OCO4)CCN1C [cepharanthine]									IC50 [7]: 400 µM
O=C1c2c(O)cc(O)cc2O[C@H](c2cc(O)c(O)c(O)c2)[C@H]1O [dihydro-myricetin]			100%						
COc1ccc(-c2cc(=O)c3c(O)cc(O)cc3o2)cc1O [diosmetin]			92%				> 100 µM	>100 (100%)	
O=C(O)c1cc(O)c(O)c(O)c1 [gallic acid]	> 30 µM	> 30 µM	92%	89%					
O=c1c(O)c(-c2ccc(O)cc2)oc2cc(O)cc(O)c12 [kaempferol]		> 30 µM	83%		> 100 µM	100%	> 100 µM	>100 (100%)	IC50 [2, 10]: 19 ± 2.1 µM; IC50 [3, 11]: > 30 µM; impact of DTT on inhibition of unwinding activity [4]: equally active in the presence and absence of DTT; mode of inhibition of unwinding activity ([4]; versus ATP): noncompetitively versus ATP; unwinding IC50 range in words ([4]; without BSA/TCEP): nanomolar range
O=c1c(O)c(-c2cc(O)c(O)c(O)c2)oc2cc(O)cc(O)c12 [myricetin]			87%		> 100 µM	100%	> 100 µM	>100 (100%)	impact of DTT on inhibition of unwinding activity [4]: equally active in the presence and absence of DTT
COc1cc(O)c2c(=O)c(-c3ccc(O)cc3)coc2c1 [prunetin]	11.5 ± 1.7 µM	> 30 µM	97%		> 100 µM	100%	> 100 µM	>100 (100%)	IC50 [2, 10]: > 100 µM; IC50 [3, 11]: > 30 µM
O=c1c(O)c(-c2ccc(O)c(O)c2)oc2cc(O)cc(O)c12 [quercetin]					> 100 µM	100%	> 100 µM		
Oc1ccc(/C=C/c2cc(O)cc(O)c2)cc1 [resveratrol]	> 30 µM	> 30 µM	98%	64%					
C[C@@H]1O[C@@H](OC[C@H]2O[C@@H](Oc3c(-c4ccc(O)c(O)c4)oc4cc(O)cc(O)c4c3=O)[C@H](O)[C@@H](O)[C@@H]2O)[C@H](O)[C@H](O)[C@H]1O [rutin]			96%	75%					
COc1c(O)cc(O)c2c(=O)cc(-c3ccccc3)oc12 [wogonin]	24.9 ± 5.5 µM	> 30 µM	95%						IC50 [2, 10]: 74.9 ± 8.3 µM; IC50 [3, 11]: > 30 µM
kaempferol-3-O-rutinoside			95%	71%					
